Data as given in patent publication US20170360743A1, “BIFLAVONE COMPOUND AND USES THEREOF FOR TREATING CANCERS AND PREPARING DRUGS” (FUJIAN MEDICAL UNIVERSITY, priority 2015, published 2017).
≈ marks a conversion by molar mass, not a printed value.

Legend:
[1] = test system: non-small cell lung cancer cell line (A549); assay: MTT inhibition of A549 cancer cell line; type: cell-based; conditions: Homo sapiens, A549, 72 hs
Method: (§1) 1. Preparing test solutions: taking a certain amount of compounds 5, using dimethyl sulfoxide (DMSO) to dissolve the compound, and using cell growth medium for each corresponding cell line to dilute the solution to 5 concentrations of test solutions: 500, 250, 125, 62.5, 31.25 μg/mL. The positive control doxorubicin were diluted with cell growth medium for each corresponding cell line to 3 concentrations: 5, 2.5, 1.25 μM. Seven human cancer cell lines, including five adhesive cancer cell lines: human gastric cancer cell line (MKN-45), non-small cell lung cancer cell line (A549), nasopharyngeal carcinoma cell line (CNE1, CNE2), large cell lung cancer cell line (PC-9); and two suspensive cancer cell lines: human promyelocytic leukemia cell line (HL60), human chronic myelogenous leukemia cell line (K562). All seven human cancer cell lines are purchased from Shanghai Chinese Academy of Sciences Cell Bank and stored in School of Medicine of Fujian Medical University. The aforementioned seven cancer cell lines were recovered from the liquid nitrogen, and then cultured in 25 cm^2 flasks under the corresponding culture conditions of each cell lines (see Table 2). […] OD was measured with microplate reader under wavelength of 492 nm and then the inhibition rate was calculated. […]

[2] = test system: large cell lung cancer cell line (PC-9); assay: MTT inhibition of PC-9 cancer cell line; type: cell-based; conditions: Homo sapiens, PC-9, 72 hs
Method: as §1

[3] = test system: human chronic myelogenous leukemia cell line (K562); assay: MTT inhibition of K562 cancer cell line; type: cell-based; conditions: K562, 72 hs
Method: as §1

[4] = test system: human promyelocytic leukemia cell line (HL60); assay: MTT inhibition of HL60 cancer cell line; type: cell-based; conditions: HL-60, HL60, 72 hs
Method: as §1

[5] = test system: nasopharyngeal carcinoma cell line (CNE1); assay: MTT inhibition of CNE1 cancer cell line; type: cell-based; conditions: Homo sapiens, CNE1, 72 hs
Method: as §1

[6] = test system: nasopharyngeal carcinoma cell line (CNE2); assay: MTT inhibition of CNE2 cancer cell line; type: cell-based; conditions: Homo sapiens, CNE-2, CNE2, 72 hs
Method: as §1

[7] = test system: human gastric cancer cell line (MKN-45); assay: MTT inhibition of MKN-45 cancer cell line; type: cell-based; conditions: MKN-45, 72 hs
Method: as §1

[8] = Solubility of Compound 5 when preparing the test solution; type: physicochemical
Source text: Its water solution (or saline solution) was acidic. […] Suitable co-solvents were selected to enhance the solubility. Studied the solubility enhancing effects of Tween-80 (final concentration 0.02-2%, v/v), PEG-400 (final concentration <40%, v/v), 1, 2-propanediol (final concentration <40%, v/v), glycerol (final concentration <30%, v/v), and CMC-Na (final concentration 1-5%, w/v). […] Considering formulations comprising tween compounds may lead to hemolysis, PEG-400 was selected as the co-solvent.

A549 cells xenograft = assay: In vivo anti-tumor activity, A549 nude mouse model; conditions: for Weights (g) After treatment: body weight after treatment; for Weights (g) Before treatment: body weight before treatment
Method: The nude mice were fed in the SPF-system, six mice in a cage. The nude mice were provided with standard food and water, maintained in the light and dark cycling conditions (12/12 h), room temperature 25±2° C., humidity 50±10%. The water and beddings were steriled and changed every day. The mice were fed in the maintenance room for a week before the experiments.
Accurately weighed a certain amount of injection grade doxorubicin powder, added saline to obtain a 0.4 mg/mL test solution. The test solution is prepared avoiding light and handy for use.
Human non-small cell lung cancer cell line A549 was resuscitated. The ratio of FBS in the culture was increased from 6% to 10%, so as to make the cells proliferated rapidly. When the cell coverage in the culture flask reached 80% or so (i.e., logarithmic growth phase), the A549 cells were digested and suspended. Using autoclaved PBS to wash the cells twice to remove the residual culture medium. And then the cells were resuspended with PBS and adjusted the cells concentration to 1×10^7 cells/mL.
After the mice accustomed to the environment, under steriled condition, using disposable syringe to transfer A549 cells (1×10^7/mL) and subcutaneously inoculated in the flank of nude mice. 0.2 ml of suspension of A549 cells was injected into each nude mice and the procedure was finished within 30 min. The rest of the cells were subjected to culture and observed for any contamination, so as to provide information on whether the construction of animal model was success.
After the inoculation of cancer cells was success and the volume of xenograft tumors reached 50 to 100 mm^3, the animals were divided randomly into 5 groups (high dosage, middle dosage, low dosage, positive control, blank control) and each group comprised 6 mice.
The animals were administered once per day. The injection volume was adjusted according to the weight measured. The animals were administered for 12 days. Positive control group was injected with 2 mg/kg Doxorubicin. The animals were administered once every 3 days, and 4 times in the 12-day period. Blank control group was injected with saline solution.
During the administration period, the living and mental state of the mice were observed every day. Body weight and tumor size was measured and recorded. The tumor size was measured using Vernier caliper and tumor volumes were calculated using the formula: V (mm^3)=½×L (mm)×W^2 (mm^2) in which L is the length and W is the width of the solid tumor nodules.
24 hrs after the last administration, the nude mice were sacrificed and the tumor was removed for volume measurements. Tumor inhibition rate was calculated.
Each mouse was weighted 24 hours after administration. In the end of the experiment, the mice were sacrifice by treating at the neck area. The tumor was removed for volume measurements and took photos.
The experimental data were analyzed by SPSS 13.0 software Comparison between groups were carried out by one-way ANOVA or two-sample comparison of U-test. Results were provided in mean±SE, difference with P<0.05 was deemed significant.

[9] = High dosage 30 mg/kg tail vein once per day, 12 days
[10] = Low dosage 5 mg/kg tail vein once per day, 12 days
[11] = Middle dosage 15 mg/kg tail vein once per day, 12 days
[12] = 2 mg/kg tail vein once every 3 days, 4 times in 12 days

## O=c1cc(-c2ccc(Oc3c(-c4ccc(O)cc4)oc4cc(O)cc(O)c4c3=O)cc2)oc2cc(O)cc(O)c12 [Compound 5, 3-(4-(5,7-dihydroxy-4-oxo-4H-benzopyran-2-yl)phenoxyl)-5,7-dihydroxy-2-(4-hydroxyphenyl)-4H-benzopyran-4-one]
[1]
  IC50: 13.2 ± 0.91 mg/L (≈ 24.5 µM)
[2]
  IC50: 21.8 ± 1.3 mg/L (≈ 40.5 µM)
[3]
  IC50: 16.8 ± 2.8 mg/L (≈ 31.2 µM)
[4]
  IC50: 18.3 ± 3 mg/L (≈ 34 µM)
[5]
  IC50: 49.3 ± 2.8 mg/L (≈ 91.5 µM)
[6]
  IC50: 13.3 ± 2.6 mg/L (≈ 24.7 µM)
[7]
  IC50: 33.2 ± 3.1 mg/L (≈ 61.7 µM)
[8]; pH adjusted to 6.0-8.0
  solubility at injection acceptable pH: still quite low
[8]; water
  solubility in water: poorly dissolved in water
A549 cells xenograft; 5-30 mg/kg tail vein once per day, 12 days
  toxicity in nude mice: low
A549 cells xenograft; [9]
  Tumor Weight-inhibitions(%): 62.2±21.3%
  Tumor weights: 0.193 ± 0.056 g
  Weights (g) After treatment: 24.4 ± 1.6 g
  Weights (g) Before treatment: 22.4 ± 1.2 g
A549 cells xenograft; [10]
  Tumor Weight-inhibitions(%): 36.9±6.1%
  Tumor weights: 0.305 ± 0.039 g
  Weights (g) After treatment: 23.4 ± 0.7 g
  Weights (g) Before treatment: 22.8 ± 0.8 g
A549 cells xenograft; [11]
  Tumor Weight-inhibitions(%): 43.7±19.8%
  Tumor weights: 0.287 ± 0.101 g
  Weights (g) After treatment: 24.9 ± 1.0 g
  Weights (g) Before treatment: 23.9 ± 1.5 g

## COc1cccc2c1C(=O)c1c(O)c3c(c(O)c1C2=O)C[C@@](O)(C(=O)CO)C[C@@H]3O[C@H]1C[C@H](N)[C@H](O)[C@H](C)O1 [Doxorubicin, reference compound]
A549 cells xenograft; [12]
  Tumor Weight-inhibitions(%): 56.8±5.6%
  Tumor weights: 0.220 ± 0.037 g
  Weights (g) After treatment: 23.6 ± 1.1 g
  Weights (g) Before treatment: 22.7 ± 1.9 g
